For one assay, the system named is NK cells. As to conditions: Crohn's disease patients; Brogan et al. 1985; cited from earlier work.
Assay [1] deals with CD4+ T cell proliferation. Nature of the assay: T cell proliferation in the absence of NK cells with exogenous cytokines added. Format: cell-based, human. To be noted: cytokine added at 20 ng mL-1, three-day culture (FIG. 9). How it is done:
Before co-culture, round bottom 96-well plates were coated with anti-CD3/CD28 antibody (R&D Systems, Minneapolis, Minn.) in PBS at 1.5 ug ml^−1 at room temperature for 2 hours, or at 0.5 ug ml^−1 at 4° C. overnight. […] For transwell assay, 24-well plates were used; NT (cells were placed on the filter side of a 1.0 um pore-sized transwell (BD Falcon, San Jose, Calif.), and CFSE-stained T cells were placed on the plate side of the transwell.

Consider three molecules from patent US10385395B2, “Diagnostic tools for response to 6-thiopurine therapy” (THE REGENTS OF THE UNIVERSITY OF CALIFORNIA, priority 2012, dated 2019).

For `Nc1nc2nc[nH]c2c(=S)[nH]1` [6-thioguanine], the “depletion of NK cells by therapy compared to other lymphoid cell types” value with NK cells is “quickly and profoundly depleted”.
On to “IL-6: recombinant cytokine (R&D Systems) added to a final concentration of 20 ng ml-1”, for which the “CD4+ cell proliferation with exogenous cytokine” value in assay [1] is listed as “greatly facilitated”.

B1: IFN-y: recombinant cytokine (R&D Systems) added to a final concentration of 20 ng ml-1 (protein, UniProt P01579 24-161, looked up)
Interferon gamma: QDPYVKEAENLKKYFNAGHSDVADNGTLFLGILKNWKEESDRKIMQSQIVSFYFKLFKNFKDDQSIQKSVETIKEDMNVKFFNSNKKKRDDFEKLTNYSVTDLNVQRKAIHELIQVMAELSPAAKTGKRKRSQMLFRG
Consider B1, for which the “CD4+ cell proliferation with exogenous cytokine” value in assay [1] is listed as “marginal effects”.
